Tested on: Escherichia coli ATCC 25922
Assay: Minimum inhibitory concentration (MIC), CLSI broth micro-dilution, E. coli
Format: cell-based
Settings: Escherichia coli
How it was run: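 Antibacterial potency is measured as MIC by the CLSI broth dilution method. Bacteria at OD600 0.0005 in Tween-80-supplemented cation-adjusted Mueller Hinton broth face ten twofold compound dilutions for 22 h at 35° C.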

[1] = ATCC25922, 22 h, Table 6, cation adjusted Mueller Hinton Broth + 0.002% Tween-80, 35° C.
[2] = ATCC25922, Table 6, cation adjusted Mueller Hinton Broth + 0.002% Tween-80, 35° C., 22 hours
[3] = ATCC25922, 22 h, Table 7, cation adjusted Mueller Hinton Broth + 0.002% Tween-80, 35° C.

MIC [1] | MIC [3] | SMILES | other results
0.19 µM |  | Cc1nc(-c2ccc(N3[C@H](C)CCC[C@@H]3C)cc2)nc(C)c1C(=O)N[C@@H](CCN)C(=O)N(C)[C@@H]1C(=O)N[C@@H](C)C(=O)N[C@H](C(=O)NCC#N)Cc2ccc(OCCN)c(c2)-c2cc1ccc2OCCN (racemic) [Compound 555, rac-(8S,11S,14S)-3,18-bis(2-aminoethoxy)-N-(cyanomethyl)-11-methyl-14-[methyl-[rac-(2S)-4-amino-2-[[4,6-dimethyl-2-[4-[rac-(2R,6S)-2,6-dimethyl-1-piperidyl]phenyl]pyrimidine-5-carbonyl]amino]butanoyl]amino]-10,13-dioxo-9,12-diazatricyclo[13.3.1.12,6]icosa-1(18),2(20),3,5,15(19),16-hexaene-8-carboxamide] | 
 |  | CCCCCCc1ccc(C(=O)N2C[C@H](N)CC2C(=O)N(C)[C@@H]2C(=O)N[C@@H](C)C(=O)N[C@H](C(=O)NCC#N)Cc3ccc(OCCN)c(c3)-c3cc2ccc3OCCN)c(C)c1 (mixture of isomers) [Compound 481, rac-(8S,11S,14S)-3,18-bis(2-aminoethoxy)-14-[[4-amino-1-(4-hexyl-2-methyl-benzoyl)pyrrolidine-2-carbonyl]-methyl-amino]-N-(cyanomethyl)-11-methyl-10,13-dioxo-9,12-diazatricyclo[13.3.1.12,6]icosa-1(18),2(20),3,5,15(19),16-hexaene-8-carboxamide] | MIC [2]: 2.3 µM
 | 0.75 µM | Cc1nc(-c2ccc(OC(C)C)cc2)nc(C)c1C(=O)N[C@@H](CNS(N)(=O)=O)C(=O)N(C)[C@@H]1C(=O)N[C@@H](C)C(=O)N[C@H](C(=O)NCC#N)Cc2ccc(OC[C@H](O)CN)c(c2)-c2cc1ccc2OC[C@H](O)CN (racemic) [Compound 579, rac-(8S,11S,14S)-N-(cyanomethyl)-11-methyl-14-[methyl-[rac-(2S)-2-[[2-(4-isopropoxyphenyl)-4,6-dimethyl-pyrimidine-5-carbonyl]amino]-3-(sulfamoylamino)propanoyl]amino]-10,13-dioxo-3,18-bis[rac-(2R)-3-amino-2-hydroxy-propoxy]-9,12-diazatricyclo[13.3.1.12,6]icosa-1(18),2(20),3,5,15(19),16-hexaene-8-carboxamide] | 
 | 0.5 µM | Cc1nc(-c2ccc(C(C)(C)C)cc2)nc(C)c1C(=O)N[C@@H](CCN)C(=O)N(C)[C@@H]1C(=O)N[C@@H](C)C(=O)N[C@H](C(=O)NCC#N)Cc2ccc(O)c(c2)-c2cc1cc(OCCN)c2O [Compound 632, (8S,11S,14S)-14-[[(2S)-4-amino-2-[[2-(4-tert-butylphenyl)-4,6-dimethyl-pyrimidine-5-carbonyl]amino]butanoyl]-methyl-amino]-17-(2-aminoethoxy)-N-(cyanomethyl)-3,18-dihydroxy-11-methyl-10,13-dioxo-9,12-diazatricyclo[13.3.1.12,6]icosa-1(18),2(20),3,5,15(19),16-hexaene-8-carboxamide] | 
 | 0.5 µM | Cc1nc(-c2ccc(OC3CCCCC3)cc2)nc(C)c1C(=O)N[C@@H](CNS(N)(=O)=O)C(=O)N[C@@H]1C(=O)N[C@@H](C)C(=O)N[C@H](C(=O)NCC#N)Cc2ccc(OCCN)c(c2)-c2cc1ccc2OCCN (racemic) [Compound 573, rac-(8S,11S,14S)-3,18-bis(2-aminoethoxy)-N-(cyanomethyl)-11-methyl-10,13-dioxo-14-[[rac-(2S)-2-[[2-[4-(cyclohexoxy)phenyl]-4,6-dimethyl-pyrimidine-5-carbonyl]amino]-3-(sulfamoylamino)propanoyl]amino]-9,12-diazatricyclo[13.3.1.12,6]icosa-1(18),2(20),3,5,15(19),16-hexaene-8-carboxamide] | 
 |  | Cc1nc(Oc2ccc(C(C)(C)C)cc2)nc(C)c1C(=O)N[C@@H](CCN)C(=O)N(C)[C@@H]1C(=O)N[C@@H](C)C(=O)N[C@H](C(=O)NCC#N)Cc2ccc(OCCN)c(c2)-c2cc1ccc2OCCN (racemic) [Compound 353, rac-(8S,11S,14S)-3,18-bis(2-aminoethoxy)-N-(cyanomethyl)-11-methyl-14-[methyl-[rac-(2S)-4-amino-2-[[2-(4-tert-butylphenoxy)-4,6-dimethyl-pyrimidine-5-carbonyl]amino]butanoyl]amino]-10,13-dioxo-9,12-diazatricyclo[13.3.1.12,6]icosa-1(18),2(20),3,5,15(19),16-hexaene-8-carboxamide] | MIC [2]: 2 µM
 | 0.5 µM | Cc1nc(-c2ccc(C(C)(C)C)cc2)nc(C)c1C(=O)N[C@@H](CCN)C(=O)N(C)[C@@H]1C(=O)N[C@@H](C)C(=O)N[C@H](C(=O)NCC#N)Cc2ccc(O)c(c2)-c2cc1ccc2OCCNCCN (racemic) [Compound 601, rac-(8S,11S,14S)-18-[2-(2-aminoethylamino)ethoxy]-N-(cyanomethyl)-3-hydroxy-11-methyl-14-[methyl-[rac-(2S)-4-amino-2-[[2-(4-tert-butylphenyl)-4,6-dimethyl-pyrimidine-5-carbonyl]amino]butanoyl]amino]-10,13-dioxo-9,12-diazatricyclo[13.3.1.12,6]icosa-1(18),2(20),3,5,15(19),16-hexaene-8-carboxamide] | 
 | 0.17 µM | Cc1nc(-c2ccc(C(C)(C)C)cc2)nc(C)c1C(=O)N[C@@H](CCN)C(=O)N(C)[C@@H]1C(=O)N[C@@H](C)C(=O)N[C@H](C(=O)NCC#N)Cc2ccc(OCCN)c(c2)-c2cc1cc(OCCN)c2O [Compound 583, (8S,11S,14S)-14-[[(2S)-4-amino-2-[[2-(4-tert-butylphenyl)-4,6-dimethyl-pyrimidine-5-carbonyl]amino]butanoyl]-methyl-amino]-3,17-bis(2-aminoethoxy)-N-(cyanomethyl)-18-hydroxy-11-methyl-10,13-dioxo-9,12-diazatricyclo[13.3.1.12,6]icosa-1(18),2(20),3,5,15(19),16-hexaene-8-carboxamide] | 
4 µM |  | CCCCc1ccc(-c2cc(N)c(C(=O)N[C@@H](CCN)C(=O)N(C)[C@@H]3C(=O)N[C@@H](C)C(=O)N[C@H](C(=O)NCC#N)Cc4ccc(OCCN)c(c4)-c4cc3ccc4OCCN)c(C)n2)nc1 (racemic) [Compound 529, rac-(8S,11S,14S)-3,18-bis(2-aminoethoxy)-N-(cyanomethyl)-11-methyl-14-[methyl-[rac-(2S)-4-amino-2-[[4-amino-6-(5-butyl-2-pyridyl)-2-methyl-pyridine-3-carbonyl]amino]butanoyl]amino]-10,13-dioxo-9,12-diazatricyclo[13.3.1.12,6]icosa-1(18),2(20),3,5,15(19),16-hexaene-8-carboxamide] | 
 |  | Cc1nc(-c2ccc(OC3(C)CC3)cc2)nc(C)c1C(=O)N[C@@H](CCN)C(=O)N(C)[C@@H]1C(=O)N[C@@H](C)C(=O)N[C@H](C(=O)NCC#N)Cc2ccc(OCCN)c(c2)-c2cc1ccc2OCCN (racemic) [Compound 344, rac-(8S,11S,14S)-3,18-bis(2-aminoethoxy)-N-(cyanomethyl)-11-methyl-14-[methyl-[rac-(2S)-4-amino-2-[[4,6-dimethyl-2-[4-(1-methylcyclopropoxy)phenyl]pyrimidine-5-carbonyl]amino]butanoyl]amino]-10,13-dioxo-9,12-diazatricyclo[13.3.1.12,6]icosa-1(18),2(20),3,5,15(19),16-hexaene-8-carboxamide] | MIC [2]: 0.38 µM
0.25 µM |  | Cc1nc(-c2ccc(C(C)(C)C)cc2)c(C(F)(F)F)cc1C(=O)N[C@@H](CCN)C(=O)N(C)[C@@H]1C(=O)N[C@@H](C)C(=O)N[C@H](C(=O)NCC#N)Cc2ccc(OCCN)c(c2)-c2cc1ccc2OCCN (racemic) [Compound 537, rac-(8S,11S,14S)-3,18-bis(2-aminoethoxy)-N-(cyanomethyl)-11-methyl-14-[methyl-[rac-(2S)-4-amino-2-[[6-(4-tert-butylphenyl)-2-methyl-5-(trifluoromethyl)pyridine-3-carbonyl]amino]butanoyl]amino]-10,13-dioxo-9,12-diazatricyclo[13.3.1.12,6]icosa-1(18),2(20),3,5,15(19),16-hexaene-8-carboxamide] | 
 | 0.38 µM | Cc1nc(-c2ccc(C(C)(C)C)cc2)nc(C)c1C(=O)N[C@@H](CCN)C(=O)N(C)[C@@H]1C(=O)N[C@@H](C)C(=O)N[C@H](C(=O)NCC#N)Cc2ccc(N)c(c2)-c2cc1ccc2OCCN (racemic) [Compound 624, rac-(8S,11S,14S)-3-amino-18-(2-aminoethoxy)-N-(cyanomethyl)-11-methyl-14-[methyl-[rac-(2S)-4-amino-2-[[2-(4-tert-butylphenyl)-4,6-dimethyl-pyrimidine-5-carbonyl]amino]butanoyl]amino]-10,13-dioxo-9,12-diazatricyclo[13.3.1.12,6]icosa-1(18),2(20),3,5,15(19),16-hexaene-8-carboxamide] | 

SMILES | MIC [1] | MIC [3] | other results
Cc1nc(-c2ccc(OC3CCCCCC3)cc2)nc(N)c1C(=O)N[C@@H](CCN)C(=O)N(C)[C@@H]1C(=O)N[C@@H](C)C(=O)N[C@H](C(=O)NCC#N)Cc2ccc(OCCN)c(c2)-c2cc1ccc2OCCN (racemic) [Compound 532, rac-(8S,11S,14S)-3,18-bis(2-aminoethoxy)-N-(cyanomethyl)-11-methyl-14-[methyl-[rac-(2S)-4-amino-2-[[4-amino-2-[4-(cycloheptoxy)phenyl]-6-methyl-pyrimidine-5-carbonyl]amino]butanoyl]amino]-10,13-dioxo-9,12-diazatricyclo[13.3.1.12,6]icosa-1(18),2(20),3,5,15(19),16-hexaene-8-carboxamide] | 0.063 µM |  | 
CCCCOc1c(F)c(F)c(-c2nc(C)c(C(=O)N[C@@H](CCN)C(=O)N(C)[C@@H]3C(=O)N[C@@H](C)C(=O)N[C@H](C(=O)NCC#N)Cc4ccc(OCCN)c(c4)-c4cc3ccc4OCCN)c(C)n2)c(F)c1F (racemic) [Compound 351, rac-(8S,11S,14S)-3,18-bis(2-aminoethoxy)-N-(cyanomethyl)-11-methyl-14-[methyl-[rac-(2S)-4-amino-2-[[2-(4-butoxy-2,3,5,6-tetrafluoro-phenyl)-4,6-dimethyl-pyrimidine-5-carbonyl]amino]butanoyl]amino]-10,13-dioxo-9,12-diazatricyclo[13.3.1.12,6]icosa-1(18),2(20),3,5,15(19),16-hexaene-8-carboxamide] | 0.25 µM |  | 
